In PMC12566936, “DST-3, a Novel Modified Cryptotanshinone, Protects Against Pulmonary Fibrosis via Inhibiting STAT3/Smad Signaling Pathway and Improves Bioavailability” (Pharmaceutics, 2025):
Like-named read-outs stand apart in the source and are kept apart here.

Columns and labels:
[1] = Pharmacokinetic study, single iv or oral administration in SD rats; assay type: in vivo; conditions: for concentration at 0.25 h / concentration at 0.5 h / concentration at 1 h / concentration at 2 h / concentration at 3 h / concentration at 4 h / concentration at 6 h / concentration at 8 h / concentration at 12 h / concentration at 24 h: n = 4; for MRT last: read-out: MRT0–t
Experimental: A total of 16 male SD rats, according to weight, were randomly divided into four groups (n = 4), a~d, as described in pharmacodynamics study: • (A) DST-3 intravenous injection of 6 mg/kg; • (B) DST-3 oral gavage of 60 mg/kg; • (C) CTS intravenous injection of 6 mg/kg; • (D) CTS oral gavage of 60 mg/kg.
Blood collection was performed in all rats at 0.25 h, 0.5 h, 1 h, 2 h, 3 h, 4 h, 6 h, 8 h, 12 h, and 24 h after administration.
The blank plasma for method validation was rapidly extracted from the main abdominal vein of SD rats. The sample for the pharmacokinetic study was obtained by taking 250 μL of blood from the orbit of SD rats. The blood was placed in a heparinized collection vessel, centrifuged at 3000 rpm for 10 min, and the upper plasma layer was taken.
A 100 μL sample was precisely measured, and 10 μL of loratadine working solution and 500 μL of ethyl acetate were added for liquid–liquid-extraction. The mixture was shaken for 1 min, centrifuged for 4 min at 12,000× g, and 400 μL of the upper organic phase was vacuum dried for 2 h. Then 100 μL of mobile phase (methanol-1% formic acid water (90:10, v/v)) was added, dissolved, vortexed for 1 min, and centrifuged at low temperature for 3 min at 12,000× g. The supernatant (80 μL) was placed in a sample bottle for HPLC-MS/MS analysis.
According to the non-compartmental model, the pharmacokinetic software DAS 2.0 was used to calculate the main pharmacokinetic parameters: maximum plasma concentration (Cmax), elimination half-life (t1/2), time to reach maximum plasma concentration (Tmax), mean residence time (MRT0–t), area under the plasma concentration curve from 0 to the last measured concentration (AUC0−t), AUC from 0 to infinity (AUC0–∞), apparent clearance rate (CL/F) and apparent distribution volume (V/F).

[2] = tested on: MRC5 cells; assay: CCK8 cell viability assay; assay type: cell-based; conditions: 20 μM, 48 h
Experimental: (§1) Medical Research Council cell strain-5 (MRC5, ATCC, Manassas, VA, USA, Cat# CCL-171) was supplemented with 10% fetal bovine serum (GIBCO, Invitrogen, Carlsbad, CA, USA) in low-sugar DMEM medium (GIBCO, Invitrogen, Carlsbad, CA, USA) in an incubator containing 5% CO2 atmosphere at 37 °C.
The cells were seeded in 96-well plates for 24 h and treated with DST-3 (1.25, 2.5, 5, 10, 20 μM) at different concentrations for 48 h. The CCK8 kit (Beyotime, Shanghai, China) was used to test the cytotoxic effect of DST-3 on MRC5 cells. Medium solution of 10% CCK8 was added to each well and incubated at 37 °C for 2 h. Absorbance was measured at 450 nm (BioTek, Elx800, Winooski, VT, USA).

[3] = tested on: TGF-β1-stimulated MRC5 cells; assay: TGF-β1-induced fibrosis in MRC5 (α-SMA, fibronectin, type I collagen; immunofluorescence and Western blot); assay type: cell-based; conditions: TGF-β1 5 ng/mL, 48 h
Experimental: as §1
MRC5 cells were fixed in 4% paraformaldehyde for 0.5 h, then permeated with 1% Triton X-100 (Sangon Biotech, Shanghai, China) for 10 min, and blocked with goat serum (BOSTER, Wuhan, China) for 1 h. The cells were then incubated with α-SMA or STAT3 (1:100 diluted) primary antibody overnight at 4 °C and secondary antibody at room temperature for 1 h. The nuclei were stained at room temperature with Hoechst 33,342 (1:100 diluted) for 10 min. Fluorescence images were captured using a laser scanning ultra-high resolution microscope (FV3000, Olympus Corporation, Tokyo, Japan).
MRC5 cells or lung tissues were washed with cold PBS and then lysed on ice using RIPA buffer (Beyotime Biotechnology, Shanghai, China) supplemented with protease and phosphatase inhibitors (Bimake, Boston, USA) for 0.5 h and centrifuged at 4 °C at 12,000× g for 15 min. […] (BCA protein Assay Kit, Pierce, Waltham, MA, USA) was used to determine protein concentration. […] Band strength was quantified by ImageJ software (version 1.53t, Bio-Rad, Rockford, IL, USA).

[4] = tested on: BLM-induced pulmonary fibrosis in C57BL/6 mice; assay: BLM-induced pulmonary fibrosis model; assay type: in vivo; conditions: BLM 2 mg/kg; DST-3 15–60 mg/kg, CTS 30 mg/kg oral
Text: Sixty male Sprague-Dawley (SD) rats were individually weighed one day prior to administration and randomly assigned to six groups (n = 10 per group) using a stratified randomization method to ensure balanced average body weights across groups (weight range: 220–260 g; inter-group mean weight difference < 5 g). The vehicle used for […] administration of both CTS and DST-3 was 0.5% sodium carboxymethyl cellulose (CMC-Na) solution. A–F: • (A) Normal saline + CMC–Na; • (B) BLM + 0.5% CMC–Na; • (C) BLM + DST-3 15 mg/kg; • (D) BLM + DST-3 30 mg/kg; • (E) BLM + DST-3 60 mg/kg; • (F) BLM + CTS 30 mg/kg.
Pulmonary fibrosis was induced in groups B–F by tracheal infusion of bleomycin 2 mg/kg, and in group A by normal saline. To create a suspension for oral administration, all DST-3 or CTS were dissolved in 0.5% CMC-Na. […]
HYP was specifically detected in collagen as a posttranslational product of proline hydroxylation. […] In this study, the content of HYP in lung tissue was determined by alkaline hydrolyzation. […] Each sample was measured at 550 nm to detect the absorbance, and the HYP content was calculated according to the following formula: Hydroxproline content (μg/mg) =Measured OD value -Blank OD value/Standard OD value -Blank OD value× Stand content ×Lysate total volume (mL)/Organization wet weight (mg) […]

[5] = cited from earlier work
[6] = male, rat, plasma, iv 6 mg/kg, n = 4, mean ± SD
[7] = male, rat, plasma, oral 60 mg/kg
[8] = male, rat, plasma, po, ig 60 mg/kg, n = 4, mean ± SD

Compound: C[C@H]1COC2=C1C(=O)C(=O)c1c2ccc2c1CCCC2(C)C [CTS, Cryptotanshinone]
- V/F ([1]; ig 60 mg/kg, n = 4, mean ± SD): 1391 ± 382.0 L
- V/F ([1]; iv 6 mg/kg, n = 4, mean ± SD): 87.70 ± 59.30 L
- concentration at 0.25 h ([1]; male, rat, plasma, iv 6 mg/kg): 341 ng/mL
- concentration at 0.5 h ([1]; male, rat, plasma, iv 6 mg/kg): 167 ng/mL
- concentration at 1 h ([1]; male, rat, plasma, iv 6 mg/kg): 91.7 ng/mL
- concentration at 2 h ([1]; male, rat, plasma, iv 6 mg/kg): 73.9 ng/mL
- concentration at 3 h ([1]; male, rat, plasma, iv 6 mg/kg): 62.8 ng/mL
- concentration at 4 h ([1]; male, rat, plasma, iv 6 mg/kg): 45.7 ng/mL
- concentration at 6 h ([1]; male, rat, plasma, iv 6 mg/kg): 29.9 ng/mL
- concentration at 8 h ([1]; male, rat, plasma, iv 6 mg/kg): 19 ng/mL
- concentration at 12 h ([1]; male, rat, plasma, iv 6 mg/kg): 10.2 ng/mL
- concentration at 24 h ([1]; male, rat, plasma, iv 6 mg/kg): 4.8 ng/mL
- AUC(0-inf) [1, 6]: 671 ± 168 ng·h/mL
- AUC(0-t) [1, 6]: 631 ± 157 ng·h/mL
- Cmax [1, 6]: 341 ± 14.9 ng/mL
- half-life [1, 6]: 6.8 ± 3.7 h
- MRT last [1, 6]: 5.1 ± 0.3 h
- concentration at 0.25 h [1, 7]: 11.7 ng/mL
- concentration at 0.5 h [1, 7]: 13.6 ng/mL
- concentration at 1 h [1, 7]: 18.9 ng/mL
- concentration at 2 h [1, 7]: 16.3 ng/mL
- concentration at 3 h [1, 7]: 23 ng/mL
- concentration at 4 h [1, 7]: 34.8 ng/mL
- concentration at 6 h [1, 7]: 29.4 ng/mL
- concentration at 8 h [1, 7]: 31 ng/mL
- concentration at 12 h [1, 7]: 17.5 ng/mL
- concentration at 24 h [1, 7]: 8.9 ng/mL
- bioavailability ([1]; male, rat, plasma, oral, ig 60 mg/kg vs iv 6 mg/kg, AUCig/AUCiv × 100%, read-out: absolute bioavailability): 8.56%
- AUC(0-inf) [1, 8]: 574 ± 51 ng·h/mL
- AUC(0-t) [1, 8]: 458 ± 22.8 ng·h/mL
- Cmax [1, 8]: 39.5 ± 6.8 ng/mL
- Tmax [1, 8]: 4.5 ± 1 h
- half-life [1, 8]: 9.3 ± 3 h
- MRT last [1, 8]: 15.7 ± 2.8 h
- cell viability (cytotoxicity) [2]: significantly decreased
- expression of α-SMA and ECM proteins [3]: downregulate the overexpression
- histopathology (HE and Masson staining): inflammatory infiltration and fibrosis severity [4]: reduced inflammatory infiltration and fibrosis severity
- oral bioavailability ([5]; CTS is a substrate of P-glycoprotein): 2.05%
- oral bioavailability ([5]; typically): below 10%
